Test results: patent US10821079B2, “PKC activators and combinations thereof” (Cognitive Research Enterprises, Inc., priority 2011, dated 2020)
One block for each compound: values may come before it.

Columns and labels:
[1] = target: PKCα (Homo sapiens, UniProt P17252); assay: Activation of purified PKC isozymes, radiometric: PKC-α; format: biochemical
Protocol: (§1) To measure PKC activity, 10 μg of protein from either cytosol or membrane was incubated for 15 min at 37° C. in the presence of 10 μM histones, 4.89 mM CaCl2, 1.2 μg/μl phosphatidyl-L-serine, 0.18 μg/μl 1,2-dioctanoyl-sn-glycerol, 10 mM MgCl2, 20 mM HEPES (pH 7.4), 0.8 mM EDTA, 4 mM EGTA, 4% glycerol, 8 μg/ml aprotinin, 8 μg/ml leupeptin, 2 mM benzamidine, and 0.5 μCi of [γ-^32P]ATP. [^32P]Phosphoprotein formation was measured by adsorption onto phosphocellulose as described previously. See Nelson et al. (2009) J Biol Chem 284, 34514-34521. For measurements of activation by RA, PKC activity was measured in the absence of diacylglycerol (DAG) and phosphatidylserine, as described by Nelson et al. (2009) J Biol Chem 284, 34514-34521. PKC-δ and PKC-ε were measured in the absence of added EGTA and CaCl^2, as described by Kanno et al. (2006) J Lipid Res 47, 1146-1156. The enzyme was provided as a purified isozyme for in vitro experiments.
(§2) To measure PKC, 10 μl of cell homogenate or purified PKC isoform was incubated for 15 min at 37° C. in the presence of 10 μM histones, 4.89 mM CaCl2, 1.2 μg/μl phosphatidyl-L-serine, 0.18 μg/μl 1,2-dioctanoyl-sn-glycerol, 10 mM MgCl2, 20 mM HEPES (pH 7.4), 0.8 mM EDTA, 4 mM EGTA, 4% glycerol, 8 μg/ml aprotinin, 8 μg/ml leupeptin, and 2 mM benzamidine. [γ32P]ATP (0.5 μCi) was added and 32P-phosphoprotein formation was measured by adsorption onto phosphocellulose as described previously. See Nelson et al., J. Neurochemistry, 1995, 65: 2350-2357.
(§3) PKC activity of each compound was measured in the absence of diacylglycerol and phosphatidylserine and PKC-δ and PKC-ε were measured in the absence of added EGTA and CaCl2, as described by Kanno et al., J. Lipid Res., 2006, 47: 1146-1156. Low concentrations of Ca^2+ were needed because high Ca^2+ can interact with the PKC phosphatidylserine binding site and prevents activation. […] To determine their PKC isoform specificity, the compounds were pre-incubated with purified isoforms of PKC for five minutes and the PKC activity was measured radiometrically.
(§4) The activation and PKC isozyme specificity of DCPLA-ethyl ester was measured following the procedures in Example 1(B) and (C), except that 9 ng of the purified isozyme was used and it was pre-incubated for 5 minutes at room temperature (FIG. 3). PKC-ε activation by DCPLA-tert-butyl ester and DCPLA-retinyl ester was measured in the same manner as DCPLA-ethyl ester (FIG. 3).

[2] = target: T1, PKC-ε (Homo sapiens, UniProt Q02156); assay: Activation of purified PKC isozymes, radiometric: PKC-ε; format: biochemical; settings: for Specificity ε/α: Activation of PKC-ε ÷ activation or inhibition of PKCα at 3 × EC50
T1 sequence (Q02156 1-737): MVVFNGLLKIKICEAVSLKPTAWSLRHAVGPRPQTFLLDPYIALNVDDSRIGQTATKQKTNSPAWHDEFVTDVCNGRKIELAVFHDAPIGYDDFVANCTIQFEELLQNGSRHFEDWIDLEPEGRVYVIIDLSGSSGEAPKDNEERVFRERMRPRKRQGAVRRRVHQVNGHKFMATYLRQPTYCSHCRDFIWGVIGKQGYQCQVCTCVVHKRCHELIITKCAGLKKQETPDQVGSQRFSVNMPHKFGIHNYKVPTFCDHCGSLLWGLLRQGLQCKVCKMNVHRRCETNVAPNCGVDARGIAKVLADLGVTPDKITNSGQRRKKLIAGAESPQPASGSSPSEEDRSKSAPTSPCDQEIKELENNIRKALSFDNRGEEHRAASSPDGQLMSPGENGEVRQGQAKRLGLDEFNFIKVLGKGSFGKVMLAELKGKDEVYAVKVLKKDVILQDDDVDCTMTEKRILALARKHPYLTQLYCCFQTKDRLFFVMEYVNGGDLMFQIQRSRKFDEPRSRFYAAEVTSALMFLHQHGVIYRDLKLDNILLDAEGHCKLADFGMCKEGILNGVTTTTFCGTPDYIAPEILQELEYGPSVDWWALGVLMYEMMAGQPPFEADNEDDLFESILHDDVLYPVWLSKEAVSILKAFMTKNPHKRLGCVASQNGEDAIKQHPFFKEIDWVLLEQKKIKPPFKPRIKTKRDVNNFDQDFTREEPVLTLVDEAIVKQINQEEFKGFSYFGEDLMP
Protocol: as §2, §3, §4
The EC50 values, PKC specificity, and activation for a select number of DCPLA esters was determined (see Table 1). EC50 values were determined by measuring the lowest concentration that activates by 50% of maximum activation. […] The specificity and activation of PKC by the various esters of DCPLA were calculated from the measurements of activation of PKC isozymes.

[3] = tested on: phosphatidylserine (C2) binding site; assay: 3H-DCPLA-ME binding to rat brain slices with competitors, film autoradiography
Protocol: To determine the binding site of DCPLA-ME, ^3H-DCPLA-ME was incubated with rat brain slices in the absence and presence of known C1 and C2 competitors. More specifically, rat brain sections were fixed with formaldehyde, sliced, and incubated with (1) ^3H-DCPLA-ME alone; (2) ^3H-DCPLA-ME with DCPLA; (3) ^3H-DCPLA-ME with Phorbol ester; or (4) ^3H-DCPLA-ME and Bryostatin 1. After incubation, the slices were washed with a buffer made of 130 mM NaCl, 5 mM MgCl, 5 mM KCl, 1 mM EGTA, and 0.1% bovine serum albumin in 10 mM HEPES-NaOH, pH 7.4, dried, and analyzed with film-autoradiography.

[4] = target: PKC-δ (Homo sapiens, UniProt Q05655); assay: Activation of purified PKC isozymes, radiometric: PKC-δ; format: biochemical
PKC-δ, sequence (Q05655 whole entry): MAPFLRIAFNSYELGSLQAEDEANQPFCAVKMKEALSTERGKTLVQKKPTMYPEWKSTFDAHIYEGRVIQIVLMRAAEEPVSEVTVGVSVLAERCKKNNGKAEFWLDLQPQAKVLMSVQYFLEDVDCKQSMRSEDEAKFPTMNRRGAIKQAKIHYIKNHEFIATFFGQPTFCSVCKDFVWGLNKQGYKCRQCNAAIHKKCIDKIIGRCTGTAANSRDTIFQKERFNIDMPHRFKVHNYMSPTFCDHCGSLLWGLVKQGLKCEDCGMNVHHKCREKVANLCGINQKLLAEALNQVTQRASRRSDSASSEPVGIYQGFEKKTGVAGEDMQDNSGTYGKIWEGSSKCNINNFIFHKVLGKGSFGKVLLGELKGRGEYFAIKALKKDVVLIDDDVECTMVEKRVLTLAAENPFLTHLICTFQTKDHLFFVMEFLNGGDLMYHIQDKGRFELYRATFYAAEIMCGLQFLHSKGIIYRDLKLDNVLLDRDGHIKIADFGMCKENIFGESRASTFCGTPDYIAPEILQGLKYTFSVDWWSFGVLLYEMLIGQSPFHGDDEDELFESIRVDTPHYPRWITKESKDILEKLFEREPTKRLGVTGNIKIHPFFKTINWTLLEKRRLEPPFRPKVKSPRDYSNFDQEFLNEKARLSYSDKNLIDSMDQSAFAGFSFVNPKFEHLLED
Protocol: as §1, §2, §3

[5] = tested on: rat primary hippocampal neurons; assay: Neurotoxic effect of Aβ1-42 assemblies, MTT viability; format: cell-based; settings: 20 hr
Protocol: Viability of cells was measured by MTT assay. MTT (3-(4,5-Dimethylthiazol-2-yl)-2,5-diphenyltetrazolium bromide) is a tetrazolium salt that is cleaved to formazan by the succinate dehydrogenase, which is only active in viable cells. After solubilization of the formazan, the amount of dye can be quantified with a microplate reader at 570 nm along with a reference of 630 nm. For MTT assay, 5×104 primary rat hippocampal neurons from 18-day-old embryonic Sprague-Dawley rat brains were plated on each well of 24-well plates coated with poly-D-lysine. After treatment, the cells were washed with 1×PBS and were incubated with 200 μl of 1 mg/ml MTT solution (Sigma, USA) at 37° C. for 2 hr. Then the MTT-solution was removed and the cells were lysed with 200 μl isopropanol containing 0.04 M HCl and 160 mM NaOH for 10 min. Finally, the reading was done at 570 nm and 630 nm. All the samples were done in triplicates and the data was represented as the percentage of control.
To assess the neurotoxic effect of different sized oligomers, rat primary hippocampal neurons were treated with variable concentrations of these Aβ1-42 species for 20 hr. Viability of the treated cells was compared to untreated cells using the MTT assay.

[6] = tested on: rat hippocampal primary neurons; assay: Synaptic marker immunofluorescence in rat hippocampal primary neurons; format: cell-based; settings: 50 nM ASPDs; 1 μM ADDLs; 20 hr
Protocol: Cells were grown in two chambered slides (Nunc, USA) at low density. For immunofluorescence staining, the cells were washed with PBS (pH 7.4) and fixed with 4% paraformaldehyde for 4 min. Following fixation, the cells were blocked and permeabilized with 5% serum and 0.3% Triton X 100 in 1×PBS for 30 min. The cells were washed three times with 1×PBS and incubated with primary antibodies for 1 hr at 1:100 dilution. The incubation slides were then washed again three times in 1×PBS and were incubated with the FITC anti-rabbit IgG and Rhodamine anti-mouse IgG for 1 hr at 1:400 dilution. The cells were further washed and treated with DAPI (4′,6-diamidino-2′-phenylindole, dihydrochloride) (Thermo Scientific, USA) to stain the nucleus. Finally, the slides were washed and mounted in Pro Long Gold antifade mounting solution (Invitrogen, USA) and were viewed under the LSM 710 Meta confocal microscope (Zeiss) at 350 nm, 490 nm, and 540 nm excitation and 470 nm, 525 nm, and 625 nm emission for DAPI, FITC, and Rhodamine respectively. Six individual fields at 63× oil lens magnification were analyzed for the mean fluorescence intensity (MFI) in each channel. The co-localization correlation generated by the ZEN software (Zeiss).
To estimate the synaptic damage caused by the ASPDs on primary hippocampal neurons, the expression of synaptophysin (a presynaptic marker) and PSD-95 (a postsynaptic marker) was measured by immunofluorescence staining. […] Following a 20 hr incubation period, the cells were stained for nucleus, PSD-95, and synaptophysin. Expression levels were calculated as the change of percentage in mean fluorescence intensity compared to untreated cells.
Primary neurons, treated and untreated, were immunostained for MAP-2, synaptophysin, and PSD-95 to determine the synaptic integrity. […] Following a 20 hr incubation period, the cells were stained for MAP-2, PSD-95, and synaptophysin as described above.

[7] = tested on: PKC-ε; assay: PKC-ε translocation to membrane in SH-SY5Y cells (Western blot); format: cell-based, human; settings: ASPD; ADDL at 20-fold higher concentrations
Protocol: Cells were harvested in homogenizing buffer containing 10 mM Tris-Cl (pH 7.4), 1 mM PMSF (phenylmethylsulfonyl fluoride), 1 mM EGTA, 1 mM EDTA, 50 mM NaF, and 20 μM leupeptin and were lysed by sonication. The homogenate was centrifuged at 100,000×g for 15 min at 4° C. to obtain the cytosolic fraction (supernatant) and membrane (pellet). The pellet was resuspended in the homogenizing buffer by sonication. Protein concentration was measured using the Coomassie Plus (Bradford) Protein Assay kit (Pierce, USA). Following quantification, 20 μg of protein from each sample was subjected to SDS-PAGE analysis in 4-20% gradient Tris-Glycine gel (Invitrogen, USA). The separated protein was then transferred to nitrocellulose membrane. The membrane was blocked with BSA at room temperature for 15 min and was incubated with primary antibody over night at 4° C. After the incubation, it was washed three times with TBS-T (Tris Buffered saline-Tween 20) and further incubated with alkaline phosphatase conjugated secondary antibody (Jackson Immunoresearch Laboratories, USA) at 1:10,000 dilution for 45 min. The membrane was finally washed three times with TBS-T and developed using the 1-step NBT-BCIP substrate (Pierce, USA). Western Blot was imaged in the ImageQuant RT-ECL (GE Life Sciences, Piscataway, N.J.) and densitometric quantification was performed using the IMAL software (Blanchette Rockefeller Neurosciences Institute, Morgantown, W. Va.). For translocation assays, PKC activation was represented as the percentage of total protein in the membrane (membrane/cytosol+membrane).
Equal amounts of proteins were loaded in each lane (20 μg) for both the cytosol and membrane fractions. Activation of PKC was calculated as the percentage of total PKC in the membrane (membrane/cytosol+membrane).

Compound: CCCCC/C=C\C/C=C\CCCCCCCC(=O)O[C@H]1CC[C@@]2(C)C(=CC[C@H]3[C@@H]4CC[C@H]([C@H](C)CCCC(C)C)[C@@]4(C)CC[C@@H]32)C1 [Cholesteryl linoleate, cholesteryl linoleate]
- PKC-α activation [1]: 20%
- PKC-ε activation (in words) [2]: little or no activation

- Specificity ε/α [2]: 7.4
- 3H-DCPLA-ME binding, 30 nM competitor [3]: 86%
- 3H-DCPLA-ME binding, 1 μM competitor [3]: 35%
Compound: CCCCCC1CC1CC1CC1CCCCCCCC(=O)O (stereo not shown) [DCPLA, cyclopropanated linoleic acid]

Compound: CCCCCC1CC1CC1CC1CCCCCCCC(=O)OC1CC[C@@]2(C)C(=CC[C@H]3[C@H]4CC[C@H]([C@H](C)CCCC(C)C)[C@@]4(C)CC[C@H]32)C1 (stereo partly shown) [DCPLA-cholesteryl ester]
- PKC-δ activation [4]: up to 130 % of control
- effect on PKC-α (in words) [1]: inhibited at all concentrations
- PKC-ε activation at peak [2]: up to 130 % of control
- concentration of maximal activation [2]: 0.01 nM
- Specificity ε/α [2]: 0.94
- potency relative to Bryostatin-1 ([2]; concentration of maximal activity): 18 ×

- PKC-ε activation at peak [2]: 140 % of control
- concentration of maximal activation [2]: 10 nM
- Specificity ε/α [2]: 8.1
Compound: CCCCCCCCC1CC1CCCCCCCCOC(=O)CCCCCCCC1CC1CC1CC1CCCCC (stereo not shown) [DCPLA-cyclopropanated oleyl ester]

- Specificity ε/α [2]: 4.2
Compound: CCCCCC1CC1CC1CC1CCCCCCCC(=O)OCC (stereo not shown) [DCPLA-ethyl ester]

Compound: CCCCCC1CC1CC1CC1CCCCCCCC(=O)OC/C=C(C)/C=C/C=C(C)/C=C/C1=C(C)CCCC1(C)C (stereo not shown) [DCPLA-retinyl ester]
- EC50 ([2]; lowest concentration that activates by 50% of maximum activation): 10 nM
- Activation ([2]; of PKCε at maximum): 129 % of control

Compound: CCCC(=O)O[C@@H]1[C@@H](C)[C@@]2(O)[C@@H](C=C(CO)C[C@]3(O)C(=O)C(C)=C[C@@H]23)[C@@H]2C(C)(C)[C@]12OC(=O)CCC [Phorbol ester (PdBu)]
- 3H-DCPLA-ME binding, 30 nM competitor [3]: 100%
- 3H-DCPLA-ME binding, 1 μM competitor [3]: 81%

Compound: ADDL: Aβ derived diffusible ligands prepared from Aβ1-42
- Viability of primary neuron (Mean ± SEM) ([5]; 50 nM): 91.35 ± 1.44 % of control
- Viability of primary neuron (Mean ± SEM) ([5]; 500 nM): 79.01 ± 11.32 % of control
- viability of neurons ([5]; 1 μM): 50.98±3.8%
- Viability of primary neuron (Mean ± SEM) ([5]; 1000 nM): 49.02 ± 7.26 % of control
- synaptophysin intensity compared to the control [6]: 75.64±4.84%
- PKC-ε membrane translocation [7]: 80.82±4.025%

Compound: oAβ <100 kDa: filtrate from the 100 kDa filtration of the ASPD preparation
- Viability of primary neuron (Mean ± SEM) ([5]; 50 nM): 76.01 ± 5.54 % of control
- Viability of primary neuron (Mean ± SEM) ([5]; 500 nM): 62.94 ± 9.53 % of control
- Viability of primary neuron (Mean ± SEM) ([5]; 1000 nM): 53.52 ± 2.43 % of control
